# Test results reported in patent US11377442B2, “Small molecule agonists and antagonists of NR2F6 activity” (ZANDER THERAPEUTICS, INC., priority 2016, dated 2022).
# Read-outs that look alike come from different tables or passages of the source.
# How the values were obtained:
# Format in all cases: cell-based
# Renilla = Renilla signal in NR2F6 agonist screening, cmpd/DMSO; conditions: Renilla, F4
# NR2F6 LBD = target: T1, NR2F6 LBD (Homo sapiens, UniProt P10588); test: NR2F6 LBD transient transfection; conditions: LBD
# T1 construct: expressed in transfected cells
# T1 sequence (P10588 165-393 limits assumed): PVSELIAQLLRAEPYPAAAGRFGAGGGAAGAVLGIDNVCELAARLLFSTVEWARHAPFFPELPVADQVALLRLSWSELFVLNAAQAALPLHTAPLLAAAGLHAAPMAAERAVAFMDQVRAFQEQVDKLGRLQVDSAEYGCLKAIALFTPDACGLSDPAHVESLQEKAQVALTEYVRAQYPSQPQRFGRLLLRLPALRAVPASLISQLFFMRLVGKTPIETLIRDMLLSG
# Protocol: FIGS. 27A and 27B show NR2F6 and LBD transient transfection, respectively, for Compound D28. Higher concentrations were excluded due to lower signal (tox effect). FIGS. 27C and 27D show NR2F6 and LBD transient transfection at different concentrations for different compounds. 9 compounds were tested on LBD transfected cells (40, 10, 2 and 0.5 μM, 4 replicates). FIGS. 27E and 27F show toxicity of Compound D28. 9 compounds were tested for cytotoxicity on LBD transfected cells (40, 10, 2 and 0.5 μM, 4 replicates). […] Cytotoxicity normalized to DMSO is shown in FIG. 27F (0% cytotoxicity corresponds to DMSO signal, 100%—zero signal).
# FIGS. 34A and 34B show NR2F6 LBD transient transfection for Compound E21. 9 compounds were tested on LBD transfected cells (40, 10, 2 and 0.5 μM, 4 replicates). FIGS. 34C and 34D show NR2F6 and LBD transient transfection at different concentrations for different compounds. 9 compounds were tested on LBD transfected cells (40, 10, 2 and 0.5 μM, 4 replicates). […] Cytotoxicity normalized to DMSO is shown in FIG. 34D (0% cytotoxicity corresponds to DMSO signal, 100%—zero signal). All compounds were tested at 5, 10, 25 and 50 uM in duplicates. Dog PBMC (1×10^6 cells/mL) were activated by 10 ng/mL PMA+500 ng/mL ionomycin. Data were normalized to controls with (100%)/without (0%) PMA+ionomycin activation.
# FIGS. 39A and 39B show NR2F6 LBD transient transfection for Compound F1. 9 compounds were tested on LBD transfected cells (40, 10, 2 and 0.5 μM, 4 replicates). FIGS. 39C and 39D show toxicity of NR2F6 LBD transient transfection. 9 compounds were tested for cytotoxicity on LBD transfected cells (40, 10, 2 and 0.5 μM, 4 replicates). Tox effect causes lower signal compared to DMSO. Cytotoxicity normalized to DMSO is shown in FIG. 39D (0% cytotoxicity corresponds to DMSO signal, 100%—zero signal).
# HEK293 pGL4 = test: Firefly_pGL signal, cmpd/DMSO (pGL4 control cells); conditions: Homo sapiens
# NR2F6 = target: T2, NR2F6 (Homo sapiens, UniProt P10588); test: NR2F6 agonist screening, Firefly signal cmpd/DMSO
# T2 construct: expressed in transfected cells; also transient transfection
# T2 sequence (P10588 1-404): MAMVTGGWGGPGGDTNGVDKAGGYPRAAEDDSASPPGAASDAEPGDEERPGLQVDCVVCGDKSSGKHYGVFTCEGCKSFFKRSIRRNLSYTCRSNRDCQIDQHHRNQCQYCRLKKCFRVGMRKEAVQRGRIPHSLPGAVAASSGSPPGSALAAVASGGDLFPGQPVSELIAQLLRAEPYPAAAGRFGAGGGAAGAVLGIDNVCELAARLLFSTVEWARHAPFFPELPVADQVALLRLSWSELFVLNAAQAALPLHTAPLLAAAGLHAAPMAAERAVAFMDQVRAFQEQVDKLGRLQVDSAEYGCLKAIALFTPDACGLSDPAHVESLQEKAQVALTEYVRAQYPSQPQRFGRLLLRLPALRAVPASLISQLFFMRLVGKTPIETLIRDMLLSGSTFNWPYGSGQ
# [1] = read-out: Renilla, F4, cmpd/DMSO (mean)
# [2] = 1% FBS, read-out: Renilla, F4, 1% FBS, cmpd/DMSO (mean)
# [3] = 10% FBS, read-out: Renilla, F4, 10% FBS, cmpd/DMSO (mean)
smiles,measurement,setting,value
CC(C)CCN[C@H]1CS(=O)(=O)C[C@@H]1S(=O)(=O)c1cccs1 [Compound D110],fold induction at 0.5 µM,Renilla; [1],1.1
same,fold induction at 2 µM,Renilla; [1],1.1
same,fold induction at 10 µM,Renilla; [1],1.3
same,fold induction at 40 µM,Renilla; [1],1.4
same,fold induction at 0.5 µM,Renilla; [2],1
same,fold induction at 2 µM,Renilla; [2],1.1
same,fold induction at 10 µM,Renilla; [2],1.5
same,fold induction at 40 µM,Renilla; [2],1.5
same,fold induction at 0.5 µM,Renilla; [3],1
same,fold induction at 2 µM,Renilla; [3],1
same,fold induction at 10 µM,Renilla; [3],1.5
same,fold induction at 40 µM,Renilla; [3],2.4
same,"Firefly LBD, cmpd/DMSO (mean)",NR2F6 LBD; 0.5 uM,1.1
same,"Firefly LBD, cmpd/DMSO (mean)",NR2F6 LBD; 2 uM,1.4
same,"Firefly LBD, cmpd/DMSO (mean)",NR2F6 LBD; 10 uM,3.0
same,"Firefly LBD, cmpd/DMSO (mean)",NR2F6 LBD; 40 uM,0.8
same,fold induction at 0.5 µM,"HEK293 pGL4; HEK293, 0.5 uM, pGL4, read-out: Firefly pGL4, cmpd/DMSO (mean)",1.2
same,fold induction at 2 µM,"HEK293 pGL4; HEK293, 2 uM, pGL4, read-out: Firefly pGL4, cmpd/DMSO (mean)",1.4
same,fold induction at 10 µM,"HEK293 pGL4; HEK293, 10 uM, pGL4, read-out: Firefly pGL4, cmpd/DMSO (mean)",3.3
same,fold induction at 40 µM,"HEK293 pGL4; HEK293, 40 uM, pGL4, read-out: Firefly pGL4, cmpd/DMSO (mean)",0.7
same,fold induction at 0.5 µM,"HEK293 pGL4; HEK293, pGL4, 1% FBS, 0.5 uM, read-out: Firefly, pGL4, 1% FBS, cmpd/DMSO (mean)",1
same,fold induction at 2 µM,"HEK293 pGL4; HEK293, pGL4, 1% FBS, 2 uM, read-out: Firefly, pGL4, 1% FBS, cmpd/DMSO (mean)",1.2
same,fold induction at 10 µM,"HEK293 pGL4; HEK293, pGL4, 1% FBS, 10 uM, read-out: Firefly, pGL4, 1% FBS, cmpd/DMSO (mean)",1.7
same,fold induction at 40 µM,"HEK293 pGL4; HEK293, pGL4, 1% FBS, 40 uM, read-out: Firefly, pGL4, 1% FBS, cmpd/DMSO (mean)",0.8
same,fold induction at 0.5 µM,"HEK293 pGL4; HEK293, pGL4, 10% FBS, 0.5 uM, read-out: Firefly, pGL4, 10% FBS, cmpd/DMSO (mean)",1.2
same,fold induction at 2 µM,"HEK293 pGL4; HEK293, pGL4, 10% FBS, 2 uM, read-out: Firefly, pGL4, 10% FBS, cmpd/DMSO (mean)",1.2
same,fold induction at 10 µM,"HEK293 pGL4; HEK293, pGL4, 10% FBS, 10 uM, read-out: Firefly, pGL4, 10% FBS, cmpd/DMSO (mean)",1.8
same,fold induction at 40 µM,"HEK293 pGL4; HEK293, pGL4, 10% FBS, 40 uM, read-out: Firefly, pGL4, 10% FBS, cmpd/DMSO (mean)",2.6
same,"Firefly F4, cmpd/DMSO (mean)",NR2F6; 0.5 uM,1.7
same,"Firefly F4, cmpd/DMSO (mean)",NR2F6; 2 uM,1.9
same,"Firefly F4, cmpd/DMSO (mean)",NR2F6; 10 uM,3.5
same,"Firefly F4, cmpd/DMSO (mean)",NR2F6; 40 uM,1.4
same,"F4, Firefly/Renilla for S/B(F4) > 3","NR2F6; 1% FBS, 10 uM",2.5
same,"Firefly, F4/pGL4 for S/B(F4) > 3","NR2F6; 1% FBS, 10 uM",2.3
same,"F4, Firefly/Renilla for S/B(F4) > 3","NR2F6; 10% FBS, 40 uM",2.5
same,"Firefly, F4/pGL4 for S/B(F4) > 3","NR2F6; 10% FBS, 40 uM",2.3
same,"Firefly, F4, 1% FBS, cmpd/DMSO (mean)","NR2F6; 1% FBS, 0.5 uM",0.8
same,"Firefly, F4, 1% FBS, cmpd/DMSO (mean)","NR2F6; 1% FBS, 2 uM",1.4
same,"Firefly, F4, 1% FBS, cmpd/DMSO (mean)","NR2F6; 1% FBS, 10 uM",3.8
same,"Firefly, F4, 1% FBS, cmpd/DMSO (mean)","NR2F6; 1% FBS, 40 uM",0.8
same,"Firefly, F4, 10% FBS, cmpd/DMSO (mean)","NR2F6; 10% FBS, 0.5 uM",1.3
same,"Firefly, F4, 10% FBS, cmpd/DMSO (mean)","NR2F6; 10% FBS, 2 uM",1.0
same,"Firefly, F4, 10% FBS, cmpd/DMSO (mean)","NR2F6; 10% FBS, 10 uM",2.4
same,"Firefly, F4, 10% FBS, cmpd/DMSO (mean)","NR2F6; 10% FBS, 40 uM",5.9
